Entries after “also recorded” stand apart in the source; their conditions may differ.
Experiments:
[1] = Static thermostability (GARDNER method), rigid PVC sheets, 210° C., 0.3 part stabilizer; settings: for coloration of the resins, in words: 0 to 3 minutes
In short: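 Rigid sheets calendered at 160° C. from powdered PVC resin with 0.3 part by weight stabilizer (dihydropyridine or 2-phenyl-indole reference) plus usual ingredients. Sheets heated in oven at 210° C., removed every three minutes over 21 minutes until incipient carbonization. Coloration scored against GARDNER scale reference figures.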

[2] = Static thermostability (GARDNER method), rigid PVC sheets, 185° C., 0.3 part stabilizer
In short: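 Rigid PVC sheets, calendered at 160° C with 0.3 part stabilizer and usual additives, were heated at 185° C. Samples came out every 6 min to 24 min, then every 3 min up to 42 min or carbonization, and colour was scored on the GARDNER scale.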

[3] = Stabilization of plastified vinyl resins (pressed plates); settings: plastified resin
Method: This study was carried out by pressing plates from sheets which had been mixed for 5 minutes at 180° C., the pressing also lasting 5 minutes but at 170° C.
The same parameters as hereabove were studied, namely the duration of the stability of the colour, the duration of the thermostability and the colour of the pressed plate.

[4] = Thermostability, flexible co-polymer (b), Metrastat oven 160° C.; settings: 0.2 part
Method: (§1) The study of the static thermostability of vinyl co-polymers was carried out according to the GARDNER method described above and, also in a more detailed manner in British Patent No. 1,489,685.
(b) Flexible co-polymer vinyl chloride-vinyl acetate.
(§2) The following compound was prepared:
The resin was allowed to gel for 5 minutes at 120° C. and the sheets were heated at 160° C. in a Metrastat oven.

[5] = Thermostability, flexible co-polymer (c), Metrastat oven 160° C.; settings: 0.3 part
Method: as §1
(c) Flexible co-polymer vinyl chloride-vinyl acetate
as §2
The sheets were heated in a Metrastat oven at 160° C. and the following results were obtained: […]

[6] = Comparison with stabilizer G1, 0.1 part, 185° C.
Method: A test was also carried out with the following compound:
Another test was made with the same resin but containing 0.1 part of stabilizer.

[7] = Comparison with 2-phenyl-indole, vinyl chloride-vinylidene chloride co-polymer, 210° C.; settings: 0.3 part
Method: A second test was made using the following compound:
The sheets were heated in a ventilated oven at 210° C. and the following results were obtained: […]

[8] = Photostabilizing power, PVC plates exposed to the sun, GARDNER scale
In short: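 Stabilized polyvinyl chloride plates, resin mixed on cylinders at 160° C, were exposed to sunlight alongside an unstabilized plate. Colour was read on the GARDNER scale after 6 and 12 hours. A + or − sign marks a half-unit step.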

[9] = Photostabilizing power, sheets exposed to the sun, co-polymer (a)
Method: (§3) The sheets were exposed to the sun and their colorations were also determined according to the GARDNER method.

[10] = Photostabilizing power, sheets exposed to the sun, rigid co-polymer (b)
Method: as §3

[11] = Polarographic study of the oxidation potential; assay type: physicochemical; settings: acetonitrile, 0.1 M lithium perchlorate, vitrous carbon electrode, calomel reference
In short: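 Oxidation potential by polarography on a rotating vitreous carbon electrode (2,500 r.p.m.) with calomel reference and platinum counter electrode, in 0.1 M lithium perchlorate in dry acetonitrile. Scan 0 to 2 V at 10 mV/second; compounds at about 0.3×10^-3 mol/liter.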

[12] = Antioxidant power on a polyvinyl chloride resin, GARDNER method, 185° C.

SMILES: C=CCOC(=O)C1=C(C)NC(C)=C(C(=O)OCC=C)C1 [Compound 1, 2,6-Dimethyl-3,5-dicarboallyloxy-1,4-dihydropyridine]
- coloration, GARDNER scale ([1]; 0 min): 1
- coloration of the resins, in words [1]: considerably less
- coloration, GARDNER scale ([1]; 3 min): 1
- thermostabilizing power compared to 2-phenyl-indole, in words ([1]; 210° C.): greatly superior to 2-phenyl-indole
- coloration, GARDNER scale ([1]; 6 min): 2
- coloration, GARDNER scale ([1]; 9 min): 4
- coloration, GARDNER scale ([1]; 12 min): 7
- coloration, GARDNER scale ([1]; 15 min): Burnt
- coloration, GARDNER scale ([2]; 0 min): 1
- coloration, GARDNER scale ([2]; 6 min): 1
- coloration, GARDNER scale ([2]; 12 min): 3
- coloration, GARDNER scale ([2]; 18 min): 3
- coloration, GARDNER scale ([2]; 24 min): 5
- coloration, GARDNER scale ([2]; 27 min): 7
- coloration, GARDNER scale ([2]; 30 min): 10
- coloration, GARDNER scale ([2]; 33 min): 10.5
- coloration, GARDNER scale ([2]; 36 min): 11
- coloration, GARDNER scale ([2]; 39 min): 16
- coloration, GARDNER scale ([2]; 42 min): Burnt
- influence on stability / basic colour of the plate, in words [3]: favourable influence on the stability of the plate; also recorded: favourable influence on the basic colour
- coloration, GARDNER scale ([4]; 0 min): 1
- coloration, GARDNER scale ([4]; 30 min): 2
- coloration, GARDNER scale ([4]; 40 min): 6
- coloration, GARDNER scale ([4]; 50 min): 12
- coloration, GARDNER scale ([4]; 60 min): 15
- coloration, GARDNER scale ([5]; 0 min): 1
- coloration, GARDNER scale ([5]; 10 min): 1
- coloration, GARDNER scale ([5]; 20 min): 2
- coloration, GARDNER scale ([5]; 30 min): 4
- coloration, GARDNER scale ([5]; 40 min): 5.5
- coloration, GARDNER scale ([5]; 50 min): 6
- coloration, GARDNER scale ([5]; 60 min): 7
- coloration, GARDNER scale ([6]; 0 min): 1
- coloration, GARDNER scale ([6]; 2 min): 1
- coloration, GARDNER scale ([6]; 4 min): 2
- coloration, GARDNER scale ([6]; 6 min): 4
- coloration, GARDNER scale ([6]; 8 min): 8
- coloration, GARDNER scale ([6]; 10 min): 11
- coloration, GARDNER scale ([6]; 12 min): 12
- coloration, GARDNER scale ([6]; 14 min): 13
- coloration, GARDNER scale ([7]; 0 min): 1
- coloration, GARDNER scale ([7]; 3 min): 1
- coloration, GARDNER scale ([7]; 6 min): 2
- coloration, GARDNER scale ([7]; 9 min): 4
- coloration, GARDNER scale ([7]; 12 min): 10
- Coloration of the plates GARDNER ([8]; exposure to sun 0): 1
- Coloration of the plates GARDNER ([8]; exposure to sun 6h): 1
- Coloration of the plates GARDNER ([8]; exposure to sun 12h): 1.5
- Colour in GARDNER degrees ([9]; After 24 hours): 1 GARDNER degrees
- Colour in GARDNER degrees ([9]; Time 0): 1 GARDNER degrees
- Colour in GARDNER degrees ([10]; After 24 hours): 2 GARDNER degrees
- Colour in GARDNER degrees ([10]; Time 0): 1 GARDNER degrees
- Oxidation potential [11]: 0.75 ± 0.01 volts
- antioxidant power, Compound 1 vs Compound Z, in words [12]: superior to Compound Z at every concentration

SMILES: CC1=C(C(=O)OCc2ccccc2)CC(C(=O)OCc2ccccc2)=C(C)N1 [Compound 21, 2,6-Dimethyl-3,5-dicarbobenzyloxy-1,4-dihydropyridine]
- coloration, GARDNER scale ([1]; 0 min): 1
- coloration of the resins, in words [1]: considerably less
- coloration, GARDNER scale ([1]; 3 min): 1
- coloration, GARDNER scale ([1]; 6 min): 2
- coloration, GARDNER scale ([1]; 9 min): 3
- coloration, GARDNER scale ([1]; 12 min): 5.5
- coloration, GARDNER scale ([1]; 15 min): 14
- coloration, GARDNER scale ([1]; 18 min): Burnt
- coloration, GARDNER scale ([2]; 0 min): 1
- coloration, GARDNER scale ([2]; 6 min): 1
- coloration, GARDNER scale ([2]; 12 min): 2
- coloration, GARDNER scale ([2]; 18 min): 10
- coloration, GARDNER scale ([2]; 24 min): 12
- coloration, GARDNER scale ([2]; 27 min): 12
- coloration, GARDNER scale ([2]; 30 min): 13
- coloration, GARDNER scale ([2]; 33 min): 14
- coloration, GARDNER scale ([2]; 36 min): Burnt
- coloration, GARDNER scale ([4]; 0 min): 1
- coloration, GARDNER scale ([4]; 30 min): 1
- coloration, GARDNER scale ([4]; 40 min): 3
- coloration, GARDNER scale ([4]; 50 min): 8
- coloration, GARDNER scale ([4]; 60 min): 15
- coloration, GARDNER scale ([5]; 0 min): 1
- coloration, GARDNER scale ([5]; 10 min): 1
- coloration, GARDNER scale ([5]; 20 min): 2
- coloration, GARDNER scale ([5]; 30 min): 5
- coloration, GARDNER scale ([5]; 40 min): 6
- coloration, GARDNER scale ([5]; 50 min): 7
- coloration, GARDNER scale ([5]; 60 min): 12
- coloration, GARDNER scale ([6]; 0 min): 1
- coloration, GARDNER scale ([6]; 2 min): 1
- coloration, GARDNER scale ([6]; 4 min): 2
- coloration, GARDNER scale ([6]; 6 min): 4
- coloration, GARDNER scale ([6]; 8 min): 11
- coloration, GARDNER scale ([6]; 10 min): 13
- coloration, GARDNER scale ([6]; 12 min): 17
- coloration, GARDNER scale ([7]; 0 min): 1.5
- coloration, GARDNER scale ([7]; 3 min): 2
- coloration, GARDNER scale ([7]; 6 min): 2
- coloration, GARDNER scale ([7]; 9 min): 3
- coloration, GARDNER scale ([7]; 12 min): 7
- coloration, GARDNER scale ([7]; 15 min): 15
- Coloration of the plates GARDNER ([8]; exposure to sun 0): 1
- Coloration of the plates GARDNER ([8]; exposure to sun 6h): 1
- Coloration of the plates GARDNER ([8]; exposure to sun 12h): 1.5
- Colour in GARDNER degrees ([9]; After 24 hours): 1 GARDNER degrees
- Colour in GARDNER degrees ([9]; Time 0): 1 GARDNER degrees
- Colour in GARDNER degrees ([10]; After 24 hours): 3.5 GARDNER degrees
- Colour in GARDNER degrees ([10]; Time 0): 1.5 GARDNER degrees
- Oxidation potential [11]: 0.73 ± 0.01 volts
